# Data taken from ChEMBL document CHEMBL1125213 (J Med Chem, 1991).
# Key:
# [1] = molecular target: T1, Adenosine A2 receptor (Rattus norvegicus, UniProt P29276+P30543); experiment: Binding affinity against adenosine A2 receptor in rat striatum by using [3H]NECA as a radioligand; type: tissue-based
# [2] = molecular target: Adenosine receptors; A1 & A2 (Rattus norvegicus) (UniProt P29276+P25099+P30543); experiment: It is the ratio of Ki value of A1 receptor to that of A2 receptor.; type: protein assay
# [3] = Hydrophobicity index; type: ADME
# [4] = molecular target: T2, Adenosine receptor A1 (Rattus norvegicus, UniProt P25099); experiment: Binding affinity against adenosine A1 receptor in rat cortex by using [3H]- PIA as a radioligand; type: tissue-based
# T2 sequence (P25099 whole entry): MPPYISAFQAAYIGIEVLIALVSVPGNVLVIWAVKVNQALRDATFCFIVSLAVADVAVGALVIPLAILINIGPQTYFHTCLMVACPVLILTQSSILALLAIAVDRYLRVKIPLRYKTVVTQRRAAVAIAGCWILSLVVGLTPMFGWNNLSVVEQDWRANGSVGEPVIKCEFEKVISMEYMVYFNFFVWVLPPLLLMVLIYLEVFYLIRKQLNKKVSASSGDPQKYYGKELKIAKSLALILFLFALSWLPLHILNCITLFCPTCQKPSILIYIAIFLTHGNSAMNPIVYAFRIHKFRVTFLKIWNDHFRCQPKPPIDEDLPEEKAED
# [5] = molecular target: T1, Adenosine A2 receptor; experiment: Tested for inhibition of rat PC12 adenylate cyclase stimulation by using NECA as a radioligand; type: cell-based; conditions: pc-12
# [6] = molecular target: T3, Adenosine receptor A1 (Rattus norvegicus) (UniProt P25099); conditions: 100 uM
# T3 sequence (whole entry): T2 sequence (P25099 whole entry)
# Description: Inhibition of [3H]PIA binding to adenosine A1 receptor of rat cortex at 100 uM
Compound,Ki [1] [µM],Selectivity ratio [2],k' [3],Ki [4] [µM],Ki [5] [µM],Inhibition [6] [%]
c1nc(NC2CCCC2)c2ncn(C3CCCC3)c2n1,19,16,4.99,1.2,5.1,
Cn1cnc2c(NC3CCCC3)nc(Cl)nc21,9.3,18,3.37,0.53,6.3,
Cn1cnc2c(NC3CCCCC3)ncnc21,13,14,,,21,
CC[C@H](Nc1nc(Cl)nc2c1ncn2C)c1ccccc1,12,4.3,,2.8,17,
Cn1cnc2c(NC3CCCC3)ncnc21,11,26,1.29,,25,
CCn1cnc2c(NC3CCCC3)ncnc21,17,39,1.66,,10.3,
Cn1cnc2c(N)nc(Cl)nc21,11,0.48,0.22,23,16,
CC[C@@H](Nc1ncnc2c1ncn2C)c1ccccc1.Cl,55,22,,2.5,25,
CC[C@H](Nc1ncnc2c1ncn2C)c1ccccc1.Cl,84,7.6,,11,74,
CCn1cnc2c(NC3CCCCC3)ncnc21,11,5.5,,2,8.5,
OCCn1cnc2c(NC3CCCC3)ncnc21,47,14,0.68,3.3,27,
c1nc(NC2CCCC2)c2ncn(C3CCCO3)c2n1 (stereo not given),39,23,1.81,1.7,30,

# Other lines, results leading:
Ki [1] [µM],Selectivity ratio [2],k' [3],Ki [4] [µM],Ki [5] [µM],Inhibition [6] [%],Compound
79,9.1,3.91,8.7,47,,c1ccc(-n2cnc3c(NC4CCCC4)ncnc32)cc1
111,16,,6.9,50,,c1ccc(Nc2ncnc3c2ncn3-c2ccccc2)cc1
8.8,0.19,0.39,,5.6,,CCn1cnc2c(N)ncnc21
6.8,2.1,,3.3,4.3,,CC[C@@H](Nc1nc(Cl)nc2c1ncn2C)c1ccccc1
23,0.82,0.21,,2.4,,Nc1ncnc2c1ncn2C1CCCO1 (stereo not given)
8.2,4.6,1.94,1.8,3.4,,Nc1ncnc2c1ncn2C1CCCC1
68,9.9,,6.9,107,,Cn1cnc2c(Nc3ccccc3)ncnc21
31,4.4,,7,21,,Cn1cnc2c(Nc3ccccc3)nc(Cl)nc21
46,< 0.5,0.04,> 100,12,30,Nc1ncnc2c1ncn2CCO
15,3.2,,4.7,11,,CC[C@@H](Nc1ncnc2c1ncn2-c1ccccc1)c1ccccc1
18,2.5,,7.2,9.9,,CC[C@H](Nc1ncnc2c1ncn2-c1ccccc1)c1ccccc1
15,0.22,0.11,69,24,,Cn1cnc2c(N)ncnc21
38,2,0.56,19,74,,Nc1ncnc2c1ncn2-c1ccccc1
